{
  "source": "ChEMBL document CHEMBL1142759",
  "about": "“Synthesis of some diguanidino 1-methyl-2,5-diaryl-1H-pyrroles as antifungal agents” (2005)",
  "key": {"Candida albicans [1]": {"system": "Candida albicans", "test": "Minimum inhibitory concentration against Candida albicans A261 evaluated by in vitro agar diffusion and micro-broth dilution assay", "type": "functional"}, "Candida tropicalis": {"system": "Candida tropicalis", "test": "Minimum inhibitory concentration against Candida tropicalis ATCC750 evaluated by in vitro agar diffusion and microbroth dilution assay", "type": "functional"}, "Candida albicans [2]": {"system": "Candida albicans", "test": "Minimum inhibitory concentration against Candida albicans V-01-191 evaluated by in vitro agar diffusion and microbroth dilution assay", "type": "functional"}, "Candida [3]": {"system": "Candida", "test": "Minimum inhibitory concentration against Candida krusei ATCC 6528 evaluated by in vitro agar diffusion and micro-broth dilution assay", "type": "functional, Candida kruisii"}, "Candida [4]": {"system": "Candida", "test": "Minimum inhibitory concentration against Candida krusei 1766-1 evaluated by in vitro agar diffusion and micro-broth dilution assay", "type": "functional, Candida kruisii"}, "Aspergillus fumigatus": {"system": "Aspergillus fumigatus", "test": "Minimum inhibitory concentration against Aspergillus fumigatus LSI-11 evaluated by in vitro agar diffusion and microbroth dilution assay", "type": "functional"}, "Candida parapsilosis": {"system": "Candida parapsilosis", "test": "Minimum inhibitory concentration against Candida parapsilosis ATCC 22019 evaluated by in vitro agar diffusion and micro-broth dilution assay", "type": "functional", "details": "Lodderomyces parapsilosis"}, "Nakaseomyces glabratus": {"system": "Nakaseomyces glabratus", "test": "Minimum inhibitory concentration against Candida glabrata ATCC 90030 evaluated by in vitro agar diffusion and microbroth dilution assay", "type": "functional"}},
  "data": [
    {"smiles": "Cn1c(-c2cc(F)c(NC(=N)N)cc2F)ccc1-c1cc(F)c(NC(=N)N)cc1F", "values": [
      {"measurement": "MIC", "setting": "Candida albicans [1]", "result": "> 16", "unit": "µg/mL"},
      {"measurement": "MIC", "setting": "Candida tropicalis", "result": "> 16", "unit": "µg/mL"},
      {"measurement": "MIC", "setting": "Candida albicans [2]", "result": "> 16", "unit": "µg/mL"},
      {"measurement": "MIC", "setting": "Candida [3]", "result": "> 16", "unit": "µg/mL"},
      {"measurement": "MIC", "setting": "Candida [4]", "result": "> 16", "unit": "µg/mL"},
      {"measurement": "MIC", "setting": "Aspergillus fumigatus", "result": "> 16", "unit": "µg/mL"},
      {"measurement": "MIC", "setting": "Candida parapsilosis", "result": "> 16", "unit": "µg/mL"},
      {"measurement": "MIC", "setting": "Nakaseomyces glabratus", "result": "> 16", "unit": "µg/mL"}
    ]},
    {"smiles": "COc1cc(NC(=N)N)ccc1-c1ccc(-c2ccc(NC(=N)N)cc2OC)n1C", "values": [
      {"measurement": "MIC", "setting": "Candida albicans [1]", "result": 16, "unit": "µg/mL"},
      {"measurement": "MIC", "setting": "Candida tropicalis", "result": 16, "unit": "µg/mL"},
      {"measurement": "MIC", "setting": "Candida albicans [2]", "result": 16, "unit": "µg/mL"},
      {"measurement": "MIC", "setting": "Candida [3]", "result": 16, "unit": "µg/mL"},
      {"measurement": "MIC", "setting": "Candida [4]", "result": 16, "unit": "µg/mL"},
      {"measurement": "MIC", "setting": "Aspergillus fumigatus", "result": 16, "unit": "µg/mL"},
      {"measurement": "MIC", "setting": "Candida parapsilosis", "result": 16, "unit": "µg/mL"},
      {"measurement": "MIC", "setting": "Nakaseomyces glabratus", "result": 16, "unit": "µg/mL"}
    ]},
    {"smiles": "Cn1c(-c2ccc(N=C(N)N)c(C(F)(F)F)c2)ccc1-c1ccc(N=C(N)N)c(C(F)(F)F)c1", "values": [
      {"measurement": "MIC", "setting": "Candida albicans [1]", "result": 16, "unit": "µg/mL"},
      {"measurement": "MIC", "setting": "Candida tropicalis", "result": 4, "unit": "µg/mL"},
      {"measurement": "MIC", "setting": "Candida albicans [2]", "result": 16, "unit": "µg/mL"},
      {"measurement": "MIC", "setting": "Candida [3]", "result": 16, "unit": "µg/mL"},
      {"measurement": "MIC", "setting": "Candida [4]", "result": 16, "unit": "µg/mL"},
      {"measurement": "MIC", "setting": "Aspergillus fumigatus", "result": 16, "unit": "µg/mL"},
      {"measurement": "MIC", "setting": "Candida parapsilosis", "result": 16, "unit": "µg/mL"},
      {"measurement": "MIC", "setting": "Nakaseomyces glabratus", "result": 16, "unit": "µg/mL"}
    ]},
    {"smiles": "Cn1c(-c2ccc(NC(=N)N)cc2)ccc1-c1ccc(NC(=N)N)cc1", "values": [
      {"measurement": "MIC", "setting": "Candida albicans [1]", "result": "> 16", "unit": "µg/mL"},
      {"measurement": "MIC", "setting": "Candida tropicalis", "result": "> 16", "unit": "µg/mL"},
      {"measurement": "MIC", "setting": "Candida albicans [2]", "result": "> 16", "unit": "µg/mL"},
      {"measurement": "MIC", "setting": "Candida [3]", "result": "> 16", "unit": "µg/mL"},
      {"measurement": "MIC", "setting": "Candida [4]", "result": "> 16", "unit": "µg/mL"},
      {"measurement": "MIC", "setting": "Aspergillus fumigatus", "result": "> 16", "unit": "µg/mL"},
      {"measurement": "MIC", "setting": "Candida parapsilosis", "result": "> 16", "unit": "µg/mL"},
      {"measurement": "MIC", "setting": "Nakaseomyces glabratus", "result": "> 16", "unit": "µg/mL"}
    ]},
    {"smiles": "Cc1cc(NC(=N)N)ccc1-c1ccc(-c2ccc(NC(=N)N)cc2C)n1C", "values": [
      {"measurement": "MIC", "setting": "Candida albicans [1]", "result": 2, "unit": "µg/mL"},
      {"measurement": "MIC", "setting": "Candida tropicalis", "result": 1, "unit": "µg/mL"},
      {"measurement": "MIC", "setting": "Candida albicans [2]", "result": 2, "unit": "µg/mL"},
      {"measurement": "MIC", "setting": "Candida [3]", "result": 4, "unit": "µg/mL"},
      {"measurement": "MIC", "setting": "Candida [4]", "result": 8, "unit": "µg/mL"},
      {"measurement": "MIC", "setting": "Aspergillus fumigatus", "result": 16, "unit": "µg/mL"},
      {"measurement": "MIC", "setting": "Candida parapsilosis", "result": 2, "unit": "µg/mL"},
      {"measurement": "MIC", "setting": "Nakaseomyces glabratus", "result": 2, "unit": "µg/mL"}
    ]},
    {"smiles": "Cn1c(-c2ccc(NC(=N)N)cc2Cl)ccc1-c1ccc(NC(=N)N)cc1Cl", "values": [
      {"measurement": "MIC", "setting": "Candida albicans [1]", "result": 8, "unit": "µg/mL"},
      {"measurement": "MIC", "setting": "Candida tropicalis", "result": 4, "unit": "µg/mL"},
      {"measurement": "MIC", "setting": "Candida albicans [2]", "result": 8, "unit": "µg/mL"},
      {"measurement": "MIC", "setting": "Candida [3]", "result": 16, "unit": "µg/mL"},
      {"measurement": "MIC", "setting": "Candida [4]", "result": 16, "unit": "µg/mL"},
      {"measurement": "MIC", "setting": "Aspergillus fumigatus", "result": "> 16", "unit": "µg/mL"},
      {"measurement": "MIC", "setting": "Candida parapsilosis", "result": 16, "unit": "µg/mL"},
      {"measurement": "MIC", "setting": "Nakaseomyces glabratus", "result": 16, "unit": "µg/mL"}
    ]},
    {"smiles": "OC(Cn1cncn1)(Cn1cncn1)c1ccc(F)cc1F", "note": "[FLUCONAZOLE]", "values": [
      {"measurement": "MIC", "setting": "Candida albicans [1]", "result": 0.25, "unit": "µg/mL"},
      {"measurement": "MIC", "setting": "Candida tropicalis", "result": 8, "unit": "µg/mL"},
      {"measurement": "MIC", "setting": "Candida albicans [2]", "result": 6, "unit": "µg/mL"},
      {"measurement": "MIC", "setting": "Candida [3]", "result": "> 8", "unit": "µg/mL"},
      {"measurement": "MIC", "setting": "Candida [4]", "result": 32, "unit": "µg/mL"},
      {"measurement": "MIC", "setting": "Aspergillus fumigatus", "result": "≥ 64", "unit": "µg/mL"},
      {"measurement": "MIC", "setting": "Candida parapsilosis", "result": 8, "unit": "µg/mL"},
      {"measurement": "MIC", "setting": "Nakaseomyces glabratus", "result": "> 8", "unit": "µg/mL"}
    ]},
    {"smiles": "CCC(C)n1ncn(-c2ccc(N3CCN(c4ccc(OC[C@H]5CO[C@](Cn6cncn6)(c6ccc(Cl)cc6Cl)O5)cc4)CC3)cc2)c1=O", "note": "(some centres undefined) [ITRACONAZOLE]", "values": [
      {"measurement": "MIC", "setting": "Candida albicans [1]", "result": "< 0.03", "unit": "µg/mL"},
      {"measurement": "MIC", "setting": "Candida tropicalis", "result": 0.12, "unit": "µg/mL"},
      {"measurement": "MIC", "setting": "Candida albicans [2]", "result": 0.25, "unit": "µg/mL"},
      {"measurement": "MIC", "setting": "Candida [3]", "result": 0.25, "unit": "µg/mL"},
      {"measurement": "MIC", "setting": "Candida [4]", "result": "< 0.03", "unit": "µg/mL"},
      {"measurement": "MIC", "setting": "Aspergillus fumigatus", "result": 0.12, "unit": "µg/mL"},
      {"measurement": "MIC", "setting": "Candida parapsilosis", "result": 0.25, "unit": "µg/mL"},
      {"measurement": "MIC", "setting": "Nakaseomyces glabratus", "result": 0.25, "unit": "µg/mL"}
    ]}
  ]
}
